Results published in patent publication US20180133186A1, “PREVENTATIVE TREATMENT OF ALZHEIMER'S DISEASE” (priority 2016, published 2018).
Read-outs that look alike come from different tables or passages of the source.

Assays:
CVN-AD mice [1] = experiment: 2-day radial arm water maze in CVN-AD mice; format: in vivo, mouse; settings: n=12
Description: Alzheimer's disease (CVN-AD) mice are modified non-human warm-blooded vertebrate animals in which a biologically active human APP polypeptide is expressed, and in which function of its inducible Nitric Oxide Synthase (iNOS) protein is reduced as compared to a non-modified animal. CVN-AD mice are described in U.S. Patent Publication No. 20090081128, the contents of which are incorporated by reference in their entirety. […] (2) Aβ deposition around blood vessels resembling pathology observed in humans with cerebral amyloid angiopathy ([…].); (3) hyperphosphorylated and aggregated mouse tau; neuronal loss; worsening behavioral deficits with time (Colton, C.); and (4) significant hippocampal and fornix volume loss (Badea, A.). […] This age in the CVN-AD mouse model is considered as representative of early Alzheimer's disease in humans (Colton, C.). The number of mice in each group is 12.

Abeta peptides = experiment: Abeta 40 and Abeta 42 peptides in whole brain lysates of CVN-AD mice; format: in vivo, mouse; settings: DFMO 0.3 or 30 mg/kg vs water, n=12
Description: The average levels of soluble Abeta 42 peptide and soluble Abeta40 peptide (plus and minus the standard error of the mean) measured in whole brain lysates are shown in FIG. 3B. […] The number of mice for each group was 12.

ornithine decarboxylase = target: T1, ornithine decarboxylase (Mus musculus, UniProt P00860); experiment: Whole brain lysate metabolite levels related to ornithine decarboxylase activity; format: in vivo
T1 construct: from tissue; host or cells: brain of CVN-AD mice (in vivo dosing; whole brain lysates analysed for metabolites)
T1 sequence (P00860 1-461): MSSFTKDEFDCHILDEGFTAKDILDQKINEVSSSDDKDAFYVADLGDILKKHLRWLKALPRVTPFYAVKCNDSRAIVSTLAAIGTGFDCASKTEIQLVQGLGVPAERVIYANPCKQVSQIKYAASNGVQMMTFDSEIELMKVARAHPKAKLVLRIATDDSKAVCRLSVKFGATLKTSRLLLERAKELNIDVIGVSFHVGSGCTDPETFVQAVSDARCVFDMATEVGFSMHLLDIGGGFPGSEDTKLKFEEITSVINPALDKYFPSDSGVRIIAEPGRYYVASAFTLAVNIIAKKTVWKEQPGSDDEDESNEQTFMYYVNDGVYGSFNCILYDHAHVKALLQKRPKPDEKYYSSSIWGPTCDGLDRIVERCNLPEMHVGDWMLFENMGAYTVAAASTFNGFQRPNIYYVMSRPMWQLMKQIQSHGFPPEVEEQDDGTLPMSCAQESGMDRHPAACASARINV
Procedure: (§1) This example was carried out as schematically illustrated in FIG. 1. […] Brains from each mouse were harvested at the end the third day of the rotorod procedure. Brain tissue lysates from each mouse in the experiment were used to determine the levels of Abeta 40 and Abeta 42 peptides and brain metabolites.
Humans with Alzheimer's disease show elevation of these metabolites (Inoue K).

CVN-AD mice [2] = format: in vivo
Procedure: as §1

humans [3] = experiment: Predicted dosage for Alzheimer's Clinical Trial; format: in vivo, human; settings: 6 mos-4 yrs
CVN-AD mice [4] = tested on: CVN-AD mice
[5] = tested on: Trypanosoma brucei gambiense; settings: cited from earlier work; for effective dosage for successful treatment of trypanosomiasis: humans
Normal volunteers = settings: cited from earlier work
melanoma [6] = settings: cited from earlier work
melanoma [7] = settings: 6 g/m^2/d oral escalated to 12 g/m^2/d, n = 24; cited from earlier work
humans [8] = settings: cited from earlier work
Metastatic liver = settings: cited from earlier work
[9] = 30 mg/kg, average +/- sem, n = 11-12 mice
[10] = 14. g/m^2/d (400 mg/kg/day) IV, n = 1055
[11] = 14.8 g/m^2/d (400 mg/kg/day) ORAL, n = 25
[12] = oral delivery [Lipton A] [Pasic T R]
[13] = 2 g/m^2/d oral, n = 16, 75 days

NCCC[C@](N)(C(=O)O)C(F)F [DFMO, alpha-difluoromethylornithine]
average number of errors in finding an escape platform after 2 days of trials, radial arm water maze (CVN-AD mice [1]; 0.3 mg/kg (0.9 mg/m^2) oral gavage 3x/wk 14 weeks vs water only): statistically significantly decreased
average number of errors in finding an escape platform after 2 days of trials, radial arm water maze (CVN-AD mice [1]; 30 mg/kg (92.5 mg/m^2) oral gavage 3x/wk 14 weeks vs water only): more so
average level of insoluble Abeta40 peptide in whole brain lysates (Abeta peptides): No significant change
average level of insoluble Abeta 42 peptide in whole brain lysates (Abeta peptides): No significant change
soluble Abeta 40 levels in whole brain lysates (Abeta peptides): statistically significantly decreased
Observed difference, putrescine (p; significantly decreased with DFMO-treatment) (ornithine decarboxylase; 30 mg/kg vs water only): p < 0.05
Observed difference, spermidine (p; significantly decreased with DFMO-treatment) (ornithine decarboxylase; 30 mg/kg vs water only): p < 0.01
putrescine, CVN-AD brain lysate levels DFMO-treated (ornithine decarboxylase; [9]): 0.49 ± 0.02 µM/g
spermidine, CVN-AD brain lysate levels DFMO-treated (ornithine decarboxylase; [9]): 12.2 ± 0.63 µM/g
brain levels of putrescine compared to untreated CVN-AD mice (ornithine decarboxylase; DFMO treatment): significantly lower
brain levels of spermidine compared to untreated CVN-AD mice (ornithine decarboxylase; DFMO treatment): significantly lower
brain levels of spermine compared to untreated CVN-AD mice (ornithine decarboxylase; DFMO treatment): significantly lower
Dose limiting events (CVN-AD mice [2]; 0.3 mg/kg, 14 wks): none
On target in brain (CVN-AD mice [2]; 0.3 mg/kg, 14 wks): yes
Dose limiting events (CVN-AD mice [2]; 10 mg/kg, 14 wks): none
On target in brain (CVN-AD mice [2]; 10 mg/kg, 14 wks (data not shown)): yes (data not
Dose limiting events (CVN-AD mice [2]; 30 mg/kg, 14 wks): none
On target in brain (CVN-AD mice [2]; 30 mg/kg, 14 wks): yes
adverse events in DFMO treated CVN-AD mice (CVN-AD mice [2]; dose range 0.9 to 90 mg/m2/d): No observable adverse events
Predicted Dose limiting effects (humans [3]; estimated human dose 36 mg/m^2 daily): none
Predicted Dose limiting effects (humans [3]; estimated human dose 109 mg/m^2 daily): none
Predicted Dose limiting effects (humans [3]; estimated human dose 328 mg/m^2 daily): none
average number of seconds on the rotorod over 3 days of testing (CVN-AD mice [4]; DFMO 0.3 or 30 mg/kg vs water only): No change
toxic effect on motor skills (CVN-AD mice [4]; at the doses used (0.3, 30 mg/kg)): no toxic effect
Efficacy: clearance of trypanosomes [5, 10]: Prolonged clearance
Efficacy: confirmed cured [5, 10]: 44% confirmed
Efficacy: probable cure [5, 10]: cured, 45%
Efficacy: clearance of brain trypanosomes [5, 11]: Partial clearance of
Efficacy: death [5, 11]: weakness). No
Efficacy: signs/symptoms of trypanosomiasis [5, 11]: Reduced
effective dosage for successful treatment of trypanosomiasis ([5]; intravenous (IV)): 14800 mg/m2/d
effective dosage for successful treatment of trypanosomiasis ([5]; orally): 14800 mg/m2/d
Other toxicity detected: vomiting/diarrhea (Normal volunteers; 0.5-3 g/m^2/d oral, n = 13): Not study limiting
dose above which ototoxicity is dose dependent, increasing toxicity (Normal volunteers; 0.5-3 g/m^2/d oral, n = 13): (12%); >1 g/m^2/d is
Ototoxicity (Normal volunteers; 0.5 g/m^2/d oral, same as placebo (12%)): (9%) same as placebo
dose with mild reversible ototoxicity (no adverse event grade assigned) (Normal volunteers; [12]): 1000 mg/m^2/d
Ototoxicity (melanoma [6]; [13]): Ototoxicity (10%)
Ototoxicity trend with dose and duration (melanoma [6]; [13]): Increasing with dose
dose with mild ototoxicity (melanoma [6]; oral delivery [Croghan M K]): 2000 mg/m^2/d
Other toxicity detected (low grade) (melanoma [7]): 67% (low grade)
Ototoxicity, % of treated subjects (melanoma [7]): Ototoxicity in 50% of
Ototoxicity, subjects affected (melanoma [7]): (12/24)
Brain-based toxicity: deaths (humans [8]; 14. g/m^2/d IV, n = 1055): 15 deaths
Brain-based toxicity: seizures (humans [8]; 14. g/m^2/d IV, n = 1055): (4%)
Other toxicity detected: abdominal pain (humans [8]; 14. g/m^2/d IV, n = 1055): pain (37.7%),
Other toxicity detected: headache (humans [8]; 14. g/m^2/d IV, n = 1055): (31.2%),
Other toxicity detected: diarrhea (humans [8]; 14.8 g/m^2/d ORAL, n = 25): (58.3%)
Other toxicity detected: headache (humans [8]; 14.8 g/m^2/d ORAL, n = 25): (16.7%),
Other toxicity detected, subjects affected (Metastatic liver; 0.5 and 1 g/m^2/d IV): 0/3) at 0.5 and 1 g/m^2/d
Ototoxicity, subjects affected (Metastatic liver; 0.5 and 1 g/m^2/d IV): Ototoxicity (0/3) at 0.5
Other toxicity detected, subjects affected (Metastatic liver; 2 g/m^2/d IV): (0/3) at 2 g/m^2/d
Ototoxicity, subjects affected (Metastatic liver; 2 g/m^2/d IV): Ototoxicity (3/3) at 2 g/m^2/d
dose with dose limiting ototoxicity (Metastatic liver; [12]): 1500 mg/m^2/d
